Tests used:
C. albicans = C. albicans specific growth rate in a shake flask (data not shown); format: cell-based, Candida albicans; conditions: 3 μg/mL, after 3 hours of treatment
[1] = tested on: six fungal strains (Gloeophyllum trabeum, Chaetomium globosum, Trametes versicolor); experiment: Fungal growth on MEA plates with furanone, statements for all six strains; format: cell-based; conditions: 1 to 60 μg/mL
Protocol: This Example examines the effect of brominated furanones on the growth of fungi associated with damage to building material. Six fungal strains were the subject of these experiments; Gloeophyllum trabeum (strains GT598 and GT599), Chaetomium globosum (wildtype strain and CG572), and Trametes versicolor (strains TV7B2-59 and TV57MAD277). The species were developed on 2% Malt-Extract Agar (MEA) plates and stored inverted at 4° C. The stocks were refreshed by streaking new plates every two months.
The brominated and non-brominated furanones were added to MAE agar plates at different concentrations. The brominated furanones were dissolved in either ethanol (“EtOH”) or methanol (“MeOH”) as stock solutions, as shown in Table 5. The non-brominated furanones were purchased from Sigma (St. Louis, Mo.). The furanone stocks were stored at 4° C.
MAE agar plates containing the same amounts of ethanol/methanol were also prepared as negative controls to eliminate any solvent effects. The plates were prepared using either 90 mm or 60 mm petri dishes and were stored inverted at 4° C. until use.
Different concentrations of furanones were studied to compare their antifungal activities. The plates were inoculated with the six fungal strains using a platinum loop and were incubated upside down at 30° C. for 7 days to monitor the growth. The initial screening was performed using a single 60 μg/mL furanone concentration.

[2] = tested on: C. albicans strain SC5341 gene expression; experiment: DNA microarray gene expression of C. albicans after BF1 treatment; format: cell-based, Candida albicans; conditions: for Induction expression ratio: 3 μg/mL BF1, 45 minutes
Protocol: An overnight culture of C. albicans strain SC5341 grown in SD medium was sub-cultured in 25 mL of the same medium to an initial OD600 of 0.005 and grown till the OD600 was 1.0. The culture was diluted using fresh SD medium to a volume of 100 mL with an initial OD600 of 0.6, and it was grown till the OD600 reached 1.0, which took approximately 2 hours. Then the culture was split into two equal portions, with 3 μg/mL of BF1 added to the first one and the same amount of ethanol added to the second one to eliminate the effects of ethanol. […] Forty-five minutes after BF1 addition, the cells were harvested by centrifugation at 13,200 rpm at 4° C. for 30 sec and stored at −80° C. until RNA isolation. To lyse the cells, 1.5 mL of Trizol reagent (Invitrogen® Co., Carlsbad, Calif.) and 0.5 mL of 0.5 mm glass beads were added to the frozen tubes containing C. albicans cell pellets. The tubes were closed tightly and beaten for 30 sec at 4,800 oscillations/minute using a mini bead beater (Biospec Products Inc., Bartlesville, Okla.). The total RNA was extracted using Trizol reagent by following the manufacture's protocol. The extracted RNA was further cleaned up using an RNeasy mini-kit (QIAGEN® Inc., Valencia, Calif.), including on-column DNA digestion with RNase-free DNase I. The RNA yield was quantified by OD260 reading, and the RNA integrity was checked, using agarose gel electrophoresis. The RNA samples were sent to the DNA MicroArray Lab at the Biotechnology Research Institute, National Research Council of Canada (Montreal, Canada) to further check the integrity and DNA microarray hybridization. RNA from a control sample and that from a furanone-treated sample were hybridized to each array. A total of four DNA microarrays were used and four biological replicates were tested. The data were analyzed using Genespring GX version 7.3 (Agilent Technologies®, Santa Clara Calif.). […] Gene functions were annotated by searching the Candida Genome Database at (www.candidagenome.org).

CCCCC1=C(Br)/C(=C/Br)OC1=O [BF1, 4-bromo-5Z-(bromomethylene)-3-butylfuran-2-one]
reduction of specific growth rate (C. albicans): approximately 50% | growth inhibition of the six fungal strains, comparison [1]: effective at preventing growth in low concentrations | Induction expression ratio ([2]; orf19.113 CIP1): 3.17 | Induction expression ratio ([2]; orf19.1167): 1.65 | Induction expression ratio ([2]; orf19.1237 ARO9): 1.87 | Induction expression ratio ([2]; orf19.125 EBP1): 13.87 | Induction expression ratio ([2]; orf19.1286): 1.97 | Induction expression ratio ([2]; orf19.1421 DAL3): 1.58 | Induction expression ratio ([2]; orf19.1783 YOR1): 1.78 | induction of gene CPD1 in DNA microarray ([2]; orf19.2175 (CPD1), 3 μg/mL BF1): 12.94 fold | Induction expression ratio ([2]; orf19.2175): 10.94 | Induction expression ratio ([2]; orf19.2262): 2.68 | Induction expression ratio ([2]; orf19.23 RTA3): 5.01 | Induction expression ratio ([2]; orf19.2396 IFR2): 2.05 | Induction expression ratio ([2]; orf19.2693): 3.97 | Induction expression ratio ([2]; orf19.2825 DRE2): 1.69 | Induction expression ratio ([2]; orf19.3131 OYE32): 12.89 | Induction expression ratio ([2]; orf19.3139): 8.82 | Induction expression ratio ([2]; orf19.320): 14.98 | Induction expression ratio ([2]; orf19.3234 OYE22): 4.00 | Induction expression ratio ([2]; orf19.3340 SOD2): 1.72 | Induction expression ratio ([2]; orf19.3433 OYE23): 20.04 | Induction expression ratio ([2]; orf19.3443 OYE2): 3.30 | Induction expression ratio ([2]; orf19.3707 YHB1): 2.65 | Induction expression ratio ([2]; orf19.4940 HIP1): 2.57 | Induction expression ratio ([2]; orf19.5059 GCS1): 1.96 | Induction expression ratio ([2]; orf19.5604 MDR1): 5.36 | Induction expression ratio ([2]; orf19.5992 WOR2): 1.54 | Induction expression ratio ([2]; orf19.6059 TTR2): 1.80 | Induction expression ratio ([2]; orf19.6275): 1.94 | Induction expression ratio ([2]; orf19.6869): 4.21 | Induction expression ratio ([2]; orf19.7306): 2.87 | Induction expression ratio ([2]; orf19.7531): 2.53 | Induction expression ratio ([2]; orf19.896 CHK1): 1.54 | Induction expression ratio ([2]; orf19.93): 1.53 | Induction expression ratio ([2]; repressed gene orf19.1097 ALS4): 0.42 | Induction expression ratio ([2]; repressed gene orf19.1344): 0.60 | Induction expression ratio ([2]; repressed gene orf19.270): 0.47 | Induction expression ratio ([2]; repressed gene orf19.2896 SOU1): 0.60 | Induction expression ratio ([2]; repressed gene orf19.2959.1): 0.64 | Induction expression ratio ([2]; repressed gene orf19.3066 ENG1): 0.57 | Induction expression ratio ([2]; repressed gene orf19.3629 DSE1): 0.66 | Induction expression ratio ([2]; repressed gene orf19.3794 CSR1): 0.60 | Induction expression ratio ([2]; repressed gene orf19.4337 ESBP6): 0.65 | Induction expression ratio ([2]; repressed gene orf19.4737 TPO3): 0.60 | Induction expression ratio ([2]; repressed gene orf19.5170 ENA21): 0.61 | Induction expression ratio ([2]; repressed gene orf19.5193 FMA1): 0.61 | Induction expression ratio ([2]; repressed gene orf19.5267): 0.56 | Induction expression ratio ([2]; repressed gene orf19.5565): 0.43 | Induction expression ratio ([2]; repressed gene orf19.6073 HMX1): 0.59 | Induction expression ratio ([2]; repressed gene orf19.6077): 0.51 | Induction expression ratio ([2]; repressed gene orf19.6245): 0.67 | Induction expression ratio ([2]; repressed gene orf19.716): 0.51 | Induction expression ratio ([2]; repressed gene orf19.742 ALD6): 0.33 | Induction expression ratio ([2]; repressed gene orf19.7502): 0.67 | Induction expression ratio ([2]; repressed gene orf19.7586 CHT3): 0.66

— US8530680B2, “System and method for controlling growth of microorganisms with brominated furanones” (Syracuse University, priority 2008, dated 2013)
